Results as given in patent EP2054420B1, “BENZIMIDAZO[1,2-C][1,2,3]THIADIAZOL-7-SULFONAMIDES AS INHIBITORS OF CARBONIC ANHYDRASE AND THE INTERMEDIATES FOR PRODUCTION THEREOF” (Biotechnologijos Institutas, priority 2006, dated 2008).

Biological target: bovine carbonic anhydrase II (Bos taurus, UniProt P00921)
Assay: fluorescent thermal shift assay (ANS probe)
Assay type: binding
Conditions: upon increasing concentration of the inhibitor; Figure 3
Description: Example 19. Determination of the observed binding constants by the fluorescent thermal shift assay.
Inhibitor binding to carbonic anhytdrases was also measured by the fluorescent thermal shift assay, which employs 1-anilino-8-naphthalene sulfonate (ANS) probe that visualizes enzyme thermal stabilization by the inhibitor thus determining the binding constant.
Resultant data is consistent with the isothermal titration calorimetry data in determining the observed binding constants of the inhibitors.

Sequence of bovine carbonic anhydrase II (P00921 whole entry): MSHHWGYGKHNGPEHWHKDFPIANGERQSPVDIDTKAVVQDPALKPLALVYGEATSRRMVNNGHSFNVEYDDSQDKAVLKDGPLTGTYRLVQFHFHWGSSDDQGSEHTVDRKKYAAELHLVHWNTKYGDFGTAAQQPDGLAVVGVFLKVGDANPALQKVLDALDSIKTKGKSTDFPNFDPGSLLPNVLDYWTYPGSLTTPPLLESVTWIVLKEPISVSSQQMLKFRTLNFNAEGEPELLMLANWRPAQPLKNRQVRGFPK

melting temperature (Tm): Tm increase
SMILES: NS(=O)(=O)c1ccc2nc3n(c2c1)N=S=C3N1CCOCC1 [compound 4, 3-morpholinbenzimidazo[1,2-c][1,2,3]thiadiazol-7-sulfonamide]
